Where two headings read alike, the source gives them in different places.
Assays:
serum triglyceride = experiment: Serum triglyceride level in rats fed with cholesterol-triglyceride-rich diet; assay type: in vivo, rat
[1] = test system: fast sodium inward current; experiment: Fast sodium inward current in rat ventricular cells; assay type: cell-based
Description: (§1) In rat ventricular cells, the effects of dicentrine on action potential and membrane current were studied. […] However, calcium current was less affected.

[2] = test system: transient outward and steady state outward current; experiment: Voltage clamp: transient outward and steady state outward current in rat ventricular cells; assay type: cell-based
Description: as §1

normotensive (NT) rats = experiment: Mean arterial pressure in conscious normotensive (NT) rats; assay type: in vivo, rat
guinea-pig trachea = experiment: Contraction and relaxation of guinea-pig trachea; assay type: cell-based
rat ventricular cells = experiment: Action potential in rat ventricular cells; assay type: cell-based; details: for AP amplitude / APD50 (action potential duration measured at 50% repolarization from the peak amplitude) / Tp (time to peak measured from the start of depolarization to the peak of the action potential): 3 μM, Ca^++ -Tyrode, 3 to 5 min exposure, means ± S.E.M.
Description: as §1
The effects of dicentrine and quinidine on action potential were compared and studied in rat ventricular cells. […] In addition to the prolongation of APD50, a depression of initial upstroke amplitude from 138.3±2.6 mV to 125.5±4.5 mV and prolongation of the time to peak amplitude from 5.0±0.5 msec to 10.0±1.9 msec were observed.

aorta = experiment: Aortic contraction induced by U-46619, angiotensin II, high potassium or carbachol; assay type: cell-based, rat
[3] = test system: conscious spontaneously hypertensive (SH) rats; experiment: Mean arterial pressure in conscious spontaneously hypertensive (SH) rats; assay type: in vivo, rat
[4] = test system: pentobarbital-anesthetized rats; experiment: Systemic hemodynamic parameters of anesthetized rats; assay type: in vivo, rat
α1 -adrenoceptor = target: T1, α1 -adrenoceptor (Rattus norvegicus, UniProt P23944); experiment: α1-adrenoceptor antagonism, concentration-response (Schild) analysis of norepinephrine- and phenylephrine-induced contraction of rat thoracic aortae; assay type: cell-based; details: for Kb: means ± S.E.M.
T1 construct: contraction of rat thoracic aortae; from tissue; host or cells: rat thoracic aorta
T1 sequence (P23944 1-561): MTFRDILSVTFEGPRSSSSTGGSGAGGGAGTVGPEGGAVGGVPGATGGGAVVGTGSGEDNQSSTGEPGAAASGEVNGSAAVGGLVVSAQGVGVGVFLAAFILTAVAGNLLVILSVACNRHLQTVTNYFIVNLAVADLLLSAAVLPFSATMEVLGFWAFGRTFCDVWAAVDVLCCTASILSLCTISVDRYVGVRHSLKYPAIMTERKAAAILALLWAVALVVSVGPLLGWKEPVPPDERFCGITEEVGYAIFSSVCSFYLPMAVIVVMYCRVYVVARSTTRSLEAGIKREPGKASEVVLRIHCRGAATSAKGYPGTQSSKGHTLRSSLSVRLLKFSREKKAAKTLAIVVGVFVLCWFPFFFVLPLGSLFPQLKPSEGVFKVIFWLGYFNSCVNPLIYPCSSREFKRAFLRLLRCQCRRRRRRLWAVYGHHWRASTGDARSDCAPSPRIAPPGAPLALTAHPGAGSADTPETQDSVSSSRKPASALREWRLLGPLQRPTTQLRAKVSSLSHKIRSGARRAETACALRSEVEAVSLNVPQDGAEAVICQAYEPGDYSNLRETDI

isolated thoracic aorta = experiment: Contractile force of isolated thoracic aorta of rats fed with high cholesterol and high fat diet; assay type: in vivo, rat
rat thoracic aorta = experiment: Norepinephrine-induced contraction of thoracic aorta; assay type: cell-based
Description: They inhibited the aggregation of washed rabbit platelets induced by ADP, collagen, arachidonic acid and platelet-activating factor (PAF). […] Furthermore, the action potential of rat ventricular cells was prolonged by these fractions. After rechromatograph on a silica gel column with n-hexane-ethylacetate (2:1), four potent compounds, dicentrine, N-methylnandigerine, N-methylovigenine and dicentrinone were obtained.
The dried, ground root material (500 g) was extracted with 95% ethanol, and the extract was concentrated in vacua and fractionated into ethanol- and ethylacetate-soluble fractions. The ethylacetate-soluble fraction was then applied to a column of silica gel and eight fractions were obtained.
Concentration: arachidonic acid (100 μM), collagen (10 μg/ml),
norepinephrine (NE, 3 μM), each fraction (100 μg/ml).

calcium current = experiment: Voltage clamp: calcium current in rat ventricular cells; assay type: cell-based
Description: as §1

[5] = pentobarbital-anesthetized rats
[6] = concentration-response curve analysis

Compound: COc1cc2c(cc1OC)-c1c3c(cc4c1[C@H](C2)N(C)CC4)OCO3 [Dicentrine, dicentrine]
- serum triglyceride level (in words) (serum triglyceride): decreased the serum triglyceride level
- fast sodium inward current (in words) [1]: inhibition of fast sodium inward current
- transient outward and steady state outward current (in words) [2]: significant inhibition of both transient outward and steady state outward current
- mean arterial pressure (in words) (normotensive (NT) rats): dose-related decreases in mean arterial pressure
- contraction of guinea-pig trachea caused by histamine or carbachol (in words) (guinea-pig trachea; histamine or carbachol): slightly inhibited
- B-adrenoceptor relaxation to isoprenaline in trachea (in words) (guinea-pig trachea; isoprenaline): not affected
- AP amplitude (rat ventricular cells): 125.5 ± 4.5 mV
- APD50 (action potential duration measured at 50% repolarization from the peak amplitude) (rat ventricular cells): 201.9 ± 28.7 ms
- Tp (time to peak measured from the start of depolarization to the peak of the action potential) (rat ventricular cells): 10.0 ± 1.9 ms
- AP amplitude (rat ventricular cells; listed as dicentrine): 125.5±4.5 mV
- APD50 (action potential duration measured at 50% repolarization from the peak amplitude) (rat ventricular cells; listed as dicentrine): 201.9 ± 28.7 ms
- Tp (time to peak measured from the start of depolarization to the peak of the action potential) (rat ventricular cells; listed as dicentrine): 10.0 ± 1.9 ms
- action potential duration (in words) (rat ventricular cells; stimulation frequency 0.1 Hz): prolonged the action potential
- initial upstroke amplitude (in words) (rat ventricular cells; stimulation frequency 0.1 Hz): reduced the initial upstroke amplitude
- time to peak (in words) (rat ventricular cells; stimulation frequency 0.1 Hz): increased the time to peak
- aortic contraction induced by U-46619, angiotensin II, high potassium or carbachol (in words) (aorta): did not affect
- mean arterial pressure (in words) ([3]; compared with NT rats): dose-related decreases in mean arterial pressure which were of greater magnitude in SH than in NT rats
- persistence of hypotensive effect ([3]; oral administration): over 15 hr
- hypotensive activity after α1 -adrenoceptor blockade (in words) ([4]; after α1 -adrenoceptor blockade): completely abolished
- mean arterial blood pressure (in words) ([4]; anesthetized rats, i.v. bolus 0.1-1.0 mg/kg): dose-related reduction in mean arterial blood pressure
- persistence of reduction in mean arterial blood pressure ([4]; anesthetized rats, i.v. bolus 0.1-1.0 mg/kg, throughout observation period): ≥ 2 h
- cardiac output (in words) [4, 5]: little or no change in cardiac output (CO)
- mean arterial pressure (in words) [4, 5]: a decrease in mean arterial pressure (MAP)
- total peripheral resistance (in words) [4, 5]: a reduction in total peripheral resistance by increasing blood flow
- heart rate, stroke volume (in words) ([4]; pentobarbital-anesthetized rats, in comparison with prazosin): no change in heart rate (HR), or stroke volume (SV)
- r (α1 -adrenoceptor; agonist norepinephrine): 0.99
- Kb (α1 -adrenoceptor; agonist norepinephrine, read-out: pA2 (converted)): 6.46 nM
- r (α1 -adrenoceptor; agonist phenylephrine): 0.99
- potency compared with phentolamine or yohimbine (in words) (α1 -adrenoceptor; [6]): much more potent than phentolamine or yohimbine
- potency compared with prazosin (in words) (α1 -adrenoceptor; [6]): less potent than prazosin
- antagonism in denuded aorta (in words) (α1 -adrenoceptor; denuded aorta): These effects still persisted in denuded aorta
- Kb (α1 -adrenoceptor; pA2, agonist phenylephrine): 0.977 nM
- antagonism of norepinephrine- or phenylephrine-induced vasoconstriction (in words) (α1 -adrenoceptor; rat aorta): competitive antagonism
- contractile force of cholesterol-triglyceride-treated rat aorta (in words) (isolated thoracic aorta; cholesterol-triglyceride-rich diet): restored the contractile force of cholesterol-triglyceride-treated rat aorta back to normal values
- maximal contractile force of isolated thoracic aorta (in words) (isolated thoracic aorta; high cholesterol and high fat diet three weeks, dicentrine 10 mg/kg oral twice a day in the last week, prazosin 5 mg/kg): restored to normal range
- vasorelaxant potency (in words) (rat thoracic aorta): the most potent vasorelaxant in rat thoracic aorta
- calcium current (in words) (calcium current): less affected

Compound: Cc1ccc(N(CC2=NCCN2)c2cccc(O)c2)cc1 [Phentolamine, phentolamine, reference compound]
- slope (α1 -adrenoceptor; Schild slope, agonist phenylephrine, 95% confidence limits in parentheses): 0.72 (0.70-1.20)
- r (α1 -adrenoceptor; agonist phenylephrine): 0.99

Compound: COc1cc2nc(N3CCN(C(=O)c4ccco4)CC3)nc(N)c2cc1OC [Prazosin, prazosin, reference compound]
- cardiac output (in words) [4, 5]: little or no change in cardiac output (CO)
- mean arterial pressure (in words) [4, 5]: a decrease in mean arterial pressure (MAP)
- total peripheral resistance (in words) [4, 5]: a reduction in total peripheral resistance by increasing blood flow
- r (α1 -adrenoceptor; agonist phenylephrine): 0.99

Compound: C=C[C@H]1C[N@@]2CC[C@H]1C[C@@H]2[C@@H](O)c1ccnc2ccc(OC)cc12 [Quinidine, quinidine, reference compound]
- AP amplitude (rat ventricular cells): 121.2 ± 2.3 mV
- APD50 (action potential duration measured at 50% repolarization from the peak amplitude) (rat ventricular cells): 276.0 ± 18.6 ms
- Tp (time to peak measured from the start of depolarization to the peak of the action potential) (rat ventricular cells): 10.8 ± 2.4 ms

Compound: COC(=O)[C@@H]1[C@H]2C[C@H]3c4[nH]c5ccccc5c4CCN3C[C@@H]2CC[C@@H]1O [Yohimbine, yohimbine, reference compound]
- r (α1 -adrenoceptor; agonist phenylephrine): 0.99
- Kb (α1 -adrenoceptor; pA2, agonist phenylephrine): 631 nM

From patent US5270321A, “Use of dicentrine and its derivatives for the treatment of arrhythmia” (priority 1992, dated 1993)
